The subject of data set [1] is UM-SCC-22A cells. Description: MTT cell survival assay and isobologram studies. The class given is cell-based, human. In general terms: Tetrazolium dyes change colour on reduction, which living cells bring about.
For another data set, the system named is telomerase. Description: Telomerase activity (TRAP) in treated cells. The class given is cell-based, human. The settings on record: UM-SCC-22A, 48 hr, C6-Pyr-Cer 1 μM, GMZ 100 nM. As to the method:
(§1) FIGS. 13A to 13B. Roles of CCPS on cell cycle profiles, and telomerase activity of UM-SCC-22A cells. (FIG. 13A) The effects of D-e-C6—, D-e-C12- and L-th-C12-pyridinium ceramides (at 1 μM for 48 hr) on cell cycle profiles of UM-SCC-22A cells were determined and compared to that of untreated cells using flow cytometry as described in Materials and Methods. (FIG. 13B) The effects of 0, 100, 250 and 500 nM L-t-C6-Pyr-Cer (LCL-124) (lanes 1-4, respectively) at 96 hr treatment in UM-SCC-22A cells on telomerase activity was assessed using TRAP assay. Lanes 5 and 6 contain positive (+) and negative (−) controls. To examine whether C6-Pyr-Cer inhibits telomerase activity directly, cell extracts (as shown in lane 1) were incubated in the presence of various concentrations of L-th-C6-Pyr-ceramide (LCL-124; 10, 20 and 100 μM) and telomerase activity was determined using TRAP assay (lanes 7-9, respectively). The presence of non-telomeric 36 bp internal standard (IS) in the TRAP assay serves as a control for polymerase chain reaction, and used for quantitation/normalization of the activity of telomerase. The results shown are representative of at least two independent experiments.
FIGS. 14A to 14D. […] (FIG. 14A) The effects of various chemotherapeutic agents on cell growth in UM-SCC-22A cells were determined using MTT assays, and the IC50 concentrations of each agent were determined from cell growth plots as described. (FIG. 14B) The synergistic effects of DOX and L-th-C6-Pyr-Cer (LCL-124) on cell growth were assessed using isobologram studies as described in Materials and Methods. (FIG. 14C) The effects of 1 μM L-th-C6-Pyr-Cer (LCL-124) or cetyl-pyridinium-bromide, without ceramide conjugate (used as a control) on the growth inhibition potential of GMZ in UM-SCC-22A cells were determined using MTT assays. (FIG. 14D) The effects of GMZ (100 nM), L-th-C6-Pyr-Cer (LCL-124; 1 μM) or GMZ and L-th-C6-Pyr-Cer (LCL-124) (100 nM and 1 μM, respectively) on telomerase activity in UM-SCC-22A cells at 48 hr were examined using TRAP assay, and compared to that of untreated controls (lanes 2, 3, 4 and 1, respectively). The data shown are representative of at least two independent experiments performed in triplicate samples. Standard deviations in each sample were between 0.1-0.5.
Determination of telomerase activity. Telomerase activity in cell extracts was measured by the PCR-based telomere repeat amplification protocol (TRAP) using TRAPeze kit (Intergen, Gaithersburg, Md.) which includes a 36-bp internal control to allow quantification of activity. In short, the intensity of telomere-specific DNA bands, measured using Quantity One (BioRad) software, were normalized to the intensity of internal control bands for each sample on polyacrylamide gels for quantification.

The next data set has as its system telomeres. Description: Telomere length (TRF) in tumor tissues. The settings on record: versus untreated controls. The class given is in vivo, human. An excerpt:
FIG. 29. […] In (B), DNA samples obtained from tumors treated with GMZ (G), L-t-C6-Pyr-Cer (Cer), and the combination of L-t-C6-Pyr-Cer with GMZ (G/C, lanes 2-4, respectively) were compared to that of untreated (U) tumors (lane 1). Lanes 5 and 6 contain DNA samples with low (L) and high (H) molecular weight (3.9 and 10.2 kb, respectively) telomeres. In (D) The levels of hTERT protein in samples obtained from tumors treated with GMZ (G), L-t-C6-Pyr-Cer (Cer), and the combination of L-t-C6-Pyr-Cer with GMZ (G/Cer, lanes 2-4, respectively) were determined by Western blot analysis using rabbit polyclonal anti-hTERT antibody, and compared to that of untreated (U) tumors (lane 1). Lanes 5 and 6 contain samples from telomerase positive (+) and negative (−) extracts. Beta-actin levels of these samples were used as loading controls (lanes 1-6, lower panel). The data shown are representative of two independent trials, and error bars represent standard deviations.
Analysis of telomere length in tumor tissues. The measurement of telomere length was performed in total genomic DNA samples isolated from tumor tissues of the SCID mice using Telomere Restriction Fragment (TRF) Length measurement kit (Roche) by Southern blotting as described in Sundararaj, et al. J Biol Chem 2004; 279:6152-6162.

The test system of a further data set is UM-SCC-22A xenografts. The settings on record: 40 mg/kg/each IP every 4 days for 20 days.
The conditions of data set [2]: mice; cited from earlier work.
The subject of data set [3] is MCF7 breast carcinoma cells. Description: Cell proliferation and viability, Trypan blue exclusion assay. The class given is cell-based. The settings on record: for IC50: 48 h treatment, read-out: IC50, inhibitory effect on MCF7 cell growth. As to the method: FIGS. 5A-5F show the dose dependent effects of CCPS analogs on survival of MCF7 breast carcinoma cells in comparison to the activity of D-e-C6-ceramide, which is commonly used as a model of ceramide action. Cell proliferation and cell viability were determined by Trypan blue exclusion assay. These assays were performed using duplicate samples in two or three independent experiments.
Cell Proliferation: Cells were seeded into plates at a density of approx. 50% corresponding to 1×10^6 cells, in 10 ml of 10% FCS and after an over night incubation the cells were treated with LCL compounds at concentration 0-20 μM in ethanol (ethanol level was kept below 0.1%) and the changes in cell numbers after 48 h were determined and expressed as a percentage of the untreated controls.
Briefly, media was removed, cells were washed twice with PBS, detached using 1% Trypsin and centrifuged at 800 rpm. Cell pellets were resuspended in PBS and Trypan blue (Sigma Chemicals, St. Louis, Mo., USA) was added (1:1 dilution). Under light microscope, the percentage of unstained and stained cells was assessed.
To examine the anticancer activity of CCPS analogs of the invention, their inhibitory effect on MCF7 breast carcinoma cells were analyzed and compared to the activity of D-e-C6-ceramide, which is commonly used as a model of action for ceramides. Cell proliferation and cell viability were determined by Trypan blue exclusion assay.

Data set [4] relates to isolated rat liver mitochondria. The experiment in a line: Accumulation / binding in isolated mitochondria. How it is done:
FIG. 16. […] Bar 2 and 4 (+FCCP), ΔΨ was dissipated by addition of FCCP at 1 μM plus antimycin A at 0.5 μg/mg protein from the beginning of the experiment. Results are expressed as mean+SEM of n=3, *p=0.01 versus control.
FIG. 23. […] Trace 3 was corrected for the absorbance of TMRM.
Preparation of mitochondria from rat liver.
Mitochondrial incubation medium.
Analysis of ceramides by mass spectroscopy (MS).

For data set [5] the test system is unchanged. Description: Cytochrome C release from mitochondria. The settings on record: 40 μM; for cytochrome C released from mitochondria: 20 minutes of incubation. The class given is biochemical. As to the method:
FIGS. 20A and 20B. […] Two min after the addition of CSA and EGTA samples were collected and treated for cytochrome C analysis. Alamethicin (ALA, 7 μg/mg protein) was added as indicated to determine the full degree of permeabilization and maximum cytochrome C release. […] Total amount of cytochrome C is 1.95 μg/mg protein.
Cytochrome C release from mitochondria. Aliquots of mitochondrial suspension were taken as indicated in figure legends and centrifuged at 15,000 g for 3 min. The supernatant and mitochondrial pellet were frozen and stored at […]. Cytochrome C in supernatants and pellets was quantified using the Quantikine cytochrome C ELISA kit (R&D Systems, Minniapolis, Minn.).

Data set [6] relates to MCF7 cells.
Method: (§2) Dose-response curves of ceramides effect on viability of Hep G2 and MCF7 cells. Hep G2 and MCF7 cells were incubated at the condition described in Section 9.1. […] Cell viability was assessed 46 hours after addition of ceramides. Data are expressed as a mean+SEM of n=3.
(§3) Cell culture. Hep G2 cells (obtained from ATCC) were cultured in Minimum essential medium (Eagle) supplemented with 10% fetal bovine serum, 2 mM L-glutamine, non-essential amino acids, 1 mM sodium pyruvate, and 1.5 g/L sodium bicarbonate in humidified air (5% CO2) at 37° C. […] MCF7 cells (obtained from ATCC) were cultured in RPMI 1640 Medium supplemented with 10% fetal bovine serum and 2 mM glutamine in humidified air (5% CO2) at 37° C. All media were supplemented with 100 U/ml penicillin and 100 μg/ml streptomycin.
(§4) Measurement of cell viability. Hep G2 or MCF7 cells were plated at a density of 10^4 cells/well in 96-well plates in the medium described under Cell culture. After 24 hours of incubation, the cells were treated with ceramides for 46 hours in 2% fetal bovine serum medium. Cell viability was determined by MTT (3-[4,5-dimethylthiazol-2-yl]-2,5-diphenyl tetrasodium bromide) based assay according manufacture recommendation (Sigma, St. Louis, Mo.).
Data set [7] is described as follows: Solubility of ceramides and ceramidoids in water. The settings on record: 37° C.
Data set [8] deals with isolated rat liver mitochondria. The experiment in a line: Mitochondrial permeabilization (ΔΨ, large-amplitude swelling). The settings on record: for IC50: read-out: IC50 of mitochondrial swelling, swelling 30 min after ceramide treatment.
Method: Effects of ceramides on ΔΨ value (17A) and mitochondrial large-amplitude swelling (17B, 17C) Mitochondria were incubated at the condition described under Section 9.1 except that 2 μM of TPP+ was present from the beginning of the experiment. Alamethicin (ALA), a pore-forming peptide (7 μg/mg protein), was added as indicated to induce permeabilization and determine the full extend of potential changes in the parameters of interest. Where indicated ceramides at 40 μM were present from the beginning of the experiment. FIGS. 17A and 17B show time-courses of ceramides effect on ΔΨ and mitochondrial swelling. […] Degree of mitochondrial swelling was determined 30 min after ceramide treatment.
Mitochondria were incubated at the condition described under Section 9.1 except that 2 μM of TPP+ was present from the beginning of the experiment. Trace 2, no addition. […] Trace 4, FCCP at 1 μM was present from the beginning of the experiment. […] Alamethicin (ALA), a pore-forming peptide (7 μg/mg protein), was added as indicated to induce permeabilization and determine the full extent of potential changes in the parameters of interest.
Mitochondria were incubated at the condition described under “Experimental procedures”. […] Trace 2, DCCD at 100 μM was added from the beginning of the experiment. Alamethicin (ALA) was added as indicated to determine full degree of permeabilization. […] The curve was generated from experiments similar to that depicted in traces 1 and 2 with indicated concentration of DCCD present from the beginning of the experiment.
Effect of hydrophobic cations on the time-course of mitochondrial large-amplitude swelling. Alamethicin (ALA), a pore-forming peptide (7 μg/mg protein), was added as indicated to induce permeabilization and determine the full extent of mitochondrial swelling. Where indicated cations at 60 μM were added to the incubation medium. Trace 1, no additions; trace 2, C2 pyridinium ceramide; trace 3, TMRM; trace 4, cetyl pyridinium; trace 5, TPP^+. Trace 3 was corrected for the absorbance of TMRM.
Time-course (A) and dose-response (B) of the effect of C6 pyridinium dihydroceramide on mitochondrial large-amplitude swelling. Mitochondria were incubated at the condition described under “Experimental procedures”. Alamethicin (ALA), a pore-forming peptide (7 μg/mg protein), was added as indicated to induce permeabilization and determine the full extent of mitochondrial swelling. Where indicated ceramides at 30 μM were added to the incubation medium. […] Trace 1, no additions; trace 2, C6 pyridinium ceramide; trace 3, C6 pyridinium dihydroceramide. […] Degree of mitochondrial swelling was determined 15 min after ceramide treatment. Trace 1, C6 pyridinium dihydroceramide; trace 2, C6 pyridinium ceramide.
Data set [9] has as its system UM-SCC-22A cells. Description: Cell cycle profiles by flow cytometry. The class given is cell-based, human. The settings on record: 1 μM, 48 hr. How it is done: as §1
Analysis of cell cycle profiles. The effects of pyridinium ceramides on the cell cycle profiles of A549 cells at 24 hr were analyzed in the presence of DNase-free RNase and propidium iodine (PI) by flow cytometry as described in Ogretmen et al., J. Biol. Chem. 2001; 276: 24901-24910, which is incorporated herein by reference in its entirety. Untreated cells were used as controls.
Analysis of cell cycle profiles. […] Untreated cells were used as controls.
On the technique in general: Flow cytometry measures light scatter and fluorescence of single cells or particles in a stream.

Data set [10] relates to MCF7 cells. The settings on record: 5 μM.
Method: Data are expressed as changes in the total ceramide level (pmol) or individual ceramide components (pmol) normalized to the phospholipid level, Pi (nmol) present in the Bligh & Dyer lipid extract and shown as changes to the control cells: Ceramide/Pi[pmol/nmol] (% Control).
Endogenous ceramide: ESI/MS/MS analysis of endogenous sphingoid bases, sphingoid base 1-phosphates and ceramide species was performed on a Thermo Finnigan TSQ 7000 triple quadrupole mass spectrometer, operating in a Multiple Reaction Monitoring (MRM) positive ionization mode using modified version (Bielawski, J. et al., SERMACS 2003, poster #68) of the protocol previously published (Sullard, M. C., Merrill, A. H., Sciences stke 2001/67/p 11).
Briefly, for the indicated points, media was removed, cells were washed twice with PBS, scraped into cold PBS (2×1.0 ml), transferred to glass vials and centrifuged for 5 min at 800 rpm. Cell pellets corresponding to ˜1×10^6 cells, were fortified with the internal standards IS (C17 base D-erythro-sphingosine: 17Sph, C17 sphingosine-1-phosphate: 17Sph-1P, N-palmitoyl-D-erythro-C13 sphingosine: 13CC16-Cer and N-heptadecanoyl-D-erythro-C17shingosine: 17CC17-Cer) and extracted (2×2 ml) into a one-phase solvent system with ethyl acetate/iso-propanol/water (60/30/10 v/v). One ml of this extract was used for Pi determination after lipid re-extraction by the Bligh and Dyer method. Remaining lipid extract was evaporated, reconstituted in 100 μl of methanol, and samples were injected on the Surveyor/TSQ 7000 LC/MS system and gradient eluted from the BDS Hypersil C8, 150×3.2 mm, 3 μm particle size column, with 1.0 mM methanolic ammonium formate/2 mM aqueous ammonium formate mobile phase system. […]
Quantitative analysis was based on the calibration curves generated by spiking an artificial matrix with the known amounts of the target analyte synthetic standards and an equal amount of the internal standards (IS). […]
Final data were adjusted and results were expressed as level of particular sphingolipids/Pi (pmol/nmol).

≈ marks a conversion by molar mass, not a printed value. Like-named read-outs stand apart in the source and are kept apart here.

Method for Hep G2 cells: as §2, §3, §4
Method for UM-SCC-22A xenografts: A) Upper Panel: In vivo therapeutic efficacy of L-t-C6-Pyr-Cer in combination with GMZ was determined in SKID mice harboring the UM-SCC-22A xenografts implanted in both flanks. The animals were treated with L-t-C6-Pyr-Cer and GMZ at 40 mg/kg/each every 4 days for 20 days. […] In these experiments, each group contained 6 mice, harboring 12 tumors, in this study. Error bars represent standard deviations, and p values were calculated. […] C) The blood counts, the levels of serum enzymes, and electrolytes were analyzed in response to L-t-C6-Pyr-Cer alone or in combination with GMZ in SKID mice.
After tumors were grown to about 200-400 mm^3 (about two weeks after implantation), the mice were treated without or with chemotherapeutic agents with intraperitoneal (IP) injection (alone or in combination) at half of their maximum tolerated doses (MTD) every 4 days for 20 days. Tumor volumes and the weights of the animals were measured before each treatment, and tumor sizes were measured at the end of the study. The endpoint was tumor rate of growth and/or tumor volume, which was calculated using the formula: length×width^2×0.52. Each experiment included at least 6 mice (which harbored two SCC tumors in flanks) per each treatment, and experiments were done at least in two independent trials.

A word on the IC50: it is the concentration needed to halve the response being measured. As to `Nc1ccn([C@@H]2O[C@H](CO)[C@@H](O)C2(F)F)c(=O)n1` [GMZ, gemcitabine, reference compound], the IC50 in the data set with UM-SCC-22A cells [1] (Homo sapiens, read-out: IC50 of chemotherapeutic agents) lay within 0.1 to 0.25 µM. The “inhibition of telomerase activity” value with telomerase is recorded as 50%. Further, the “reduction of TRF (telomere) length in tumors” value in the data set with telomeres is reported as roughly 200 bp. Also, in the data set on UM-SCC-22A xenografts, the “inhibition of HNSCC tumor growth” value is reported as “some inhibition of HNSCC tumor growth”. Further, the “MTD of reference drugs (known)” value in data set [2] is listed as 80 mg/kg.

As a reminder, the Solubility is how much of the substance goes into solution per volume. Consider `CCCCCCCCCCCCC/C=C/[C@@H](O)[C@H](CO)NC(=O)CCCCC` [C6-Cer, D-erythro-C6-ceramide, reference compound], for which the “inhibition of MCF7 cell growth” value in [3] (10 μM, 48 h) is recorded as roughly 35%. Also, the IC50 in data set [3] was 15 µM; in the data set on Hep G2 cells, roughly 31 µM; in the data set on MCF7 cells [6], roughly 16 µM; in [8], greater than 60 µM. Moreover, the “suppression of accumulation by dissipation of ΔΨ (antimycin plus FCCP)” value in [4] (10 μM) is “insensitive to dissipation of ΔΨ”. This compound also came in with an association with mitochondria in data set [4] (10 μM, energized mitochondria) of 79.3%. In [4] (30 μM, at 4 min), this compound returned a binding to mitochondria of 5±0.8 nmol/mg protein. In addition, the “cytochrome C released from mitochondria” value in data set [5] is recorded as “no effect on cytochrome C release”. For the same compound, the “Solubility at 37° C.” value in data set [7] turned out to be 1.4 µg/mL (≈ 3.52 µM). In addition, the “Solubility at 37° C. ([mM])” value in [7] was “(0.0036) mM”.

“D-erythro-2-N-[6′-(1″-Pyridinium)-hexanoyl]-sphingosine Bromide [LCL29]”: in data set [3] (48 h), the “inhibitory effect on MCF7 cell growth (in words)” value is on record as “caused inhibitory effect on MCF7 cell growth”. The IC50 in data set [3] is 1 µM; in the data set with UM-SCC-22A cells [1] (UM-SCC-22A, 48 hr, read-out: IC50, cell growth), roughly 1 µM; with UM-SCC-22A cells [1] (UM-SCC-22A, 96 hr, DMEM, listed as D-e-C6-Pyr-Cer, read-out: IC50, cell growth) it was roughly 0.3 µM; in the data set with Hep G2 cells, roughly 8 µM; in the data set with MCF7 cells [6], roughly 2 µM; in data set [8], roughly 27.5 µM. In addition, in the data set with UM-SCC-22A cells [9], the cell cycle profile result is listed as “significant increase in the population of cells in G0/G1”. Further, the “fold decrease in cytochrome C release with FCCP plus antimycin A” value in [5] (20 minutes) is listed as roughly 3 fold. The “cytochrome C released from mitochondria” value in data set [5] is “about 40%”. Moreover, the “effect on endogenous ceramide” value in the data set with MCF7 cells [10] is “caused generation of an “early Cer””. The “effect on ΔΨ and mitochondrial swelling (in words)” value in data set [8] (40 μM) is “complete dissipation of ΔΨ”.

(Values after patent publication US8093393B2, “Cationic ceramides, and analogs thereof, and their use for preventing or treating cancer” (MUSC Foundation for Research Development, priority 2004, dated 2012).)
